# Read-outs that look alike come from different tables or passages of the source.
# Experiments:
# Format in all cases: in vivo
# [1] = test system: Italian ryegrass (Lolium multiflorum); assay: Test B pre-/postemergence plant response
# Procedure, shortened: (§1)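 Evaluation is visual, about 10 days after application, rating injury from 0 (none) to 100 (complete control) relative to untreated controls. Application was a preemergence soil spray on seeded pots or a postemergence spray on one- to two-leaf plants.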
# [2] = test system: ragweed (common ragweed, Ambrosia elatior); assay: Test B pre-/postemergence plant response
# Procedure, shortened: as §1
# [3] = test system: kochia (Kochia scoparia); assay: Test B pre-/postemergence plant response
# Procedure, shortened: as §1
# [4] = test system: pigweed (Amaranthus retroflexus); assay: Test D pre-/postemergence plant response; conditions: Amaranthus retroflexus; for pest or weed control at 31 g/ha: 31 g ai/ha; for pest or weed control at 62 g/ha: 62 g ai/ha; for pest or weed control at 125 g/ha: 125 g ai/ha
# Procedure, shortened: (§2)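 Seeds were planted in a loam and sand blend and sprayed preemergence. In parallel, seedlings grown in peat moss/vermiculite medium were sprayed postemergence at 2 to 18 cm height. Both used a surfactant-containing non-phytotoxic solvent. Greenhouse ratings at 13 to 15 days used a 0–100 control scale.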
# [5] = test system: galium (catchweed bedstraw, Galium aparine); assay: Test D pre-/postemergence plant response; conditions: Galium; for pest or weed control at 31 g/ha: 31 g ai/ha; for pest or weed control at 62 g/ha: 62 g ai/ha; for pest or weed control at 125 g/ha: 125 g ai/ha
# Procedure, shortened: as §2
# [6] = test system: Italian ryegrass (Lolium multiflorum); assay: Test D pre-/postemergence plant response; conditions: Lolium multiflorum; for pest or weed control at 31 g/ha: 31 g ai/ha; for pest or weed control at 62 g/ha: 62 g ai/ha; for pest or weed control at 125 g/ha: 125 g ai/ha
# Procedure, shortened: as §2
# [7] = test system: blackgrass (Alopecurus myosuroides); assay: Test D pre-/postemergence plant response; conditions: Alopecurus myosuroides; for pest or weed control at 16 g/ha: 16 g ai/ha; for pest or weed control at 31 g/ha: 31 g ai/ha; for pest or weed control at 62 g/ha: 62 g ai/ha; for pest or weed control at 125 g/ha: 125 g ai/ha
# Procedure, shortened: as §2
# [8] = test system: giant foxtail (Setaria faberii); assay: Test D pre-/postemergence plant response; conditions: Setaria faberi; for pest or weed control at 125 g/ha: 125 g ai/ha
# Procedure, shortened: as §2
# [9] = 31 g ai/ha, Preemergence, 0 to 100 scale where 0 is no effect and 100 is complete control
# [10] = 125 g ai/ha, postemergence, 0 to 100 scale, 0 no effect, 100 complete control
# [11] = Postemergence, 31 g ai/ha, 0 to 100 scale (0 no effect, 100 complete control)
# [12] = Preemergence, 125 g ai/ha, 0 to 100 scale (0 no effect, 100 complete control)
# [13] = post-emergence, Postemergence, scale 0 to 100, 0 no effect, 100 complete control, read-out: Plant response rating, Pigweed
# [14] = pre-emergence, Preemergence, scale 0 to 100 (0 no effect, 100 complete control), read-out: Plant response rating, Pigweed
# [15] = post-emergence, Postemergence, scale 0 to 100, 0 no effect, 100 complete control, read-out: Plant response rating, Galium
# [16] = pre-emergence, Preemergence, scale 0 to 100 (0 no effect, 100 complete control), read-out: Plant response rating, Galium
# [17] = post-emergence, Postemergence, scale 0 to 100, 0 no effect, 100 complete control, read-out: Plant response rating, Ryegrass, Italian
# [18] = pre-emergence, Preemergence, scale 0 to 100 (0 no effect, 100 complete control), read-out: Plant response rating, Ryegrass, Italian
# [19] = post-emergence, Postemergence, scale 0 to 100 (0 no effect, 100 complete control), read-out: Blackgrass plant response rating
# [20] = post-emergence, Postemergence, scale 0 to 100, 0 no effect, 100 complete control, read-out: Plant response rating, Blackgrass
# [21] = pre-emergence, Preemergence, scale 0 to 100 (0 no effect, 100 complete control), read-out: Plant response rating, Blackgrass
smiles,measurement,setting,value
"Fc1cccc(Oc2ncc(Br)cn2)c1-c1cc(C(F)F)no1 [Compound 145, 5-bromo-2-[2-[3-(difluoromethyl)-5-isoxazolyl]-3-fluorophenoxy]pyrimidine]","Plant response rating, Ryegrass, Italian",[1]; [9],0
same,"Plant response rating, Ryegrass, Italian",[1]; [10],80
same,"Plant response rating, Ryegrass, Italian",[1]; [11],20
same,"Ryegrass, Italian plant response rating",[1]; [12],40
same,"Plant response rating, Ragweed",[2]; [9],0
same,"Plant response rating, Ragweed",[2]; [10],50
same,"Plant response rating, Ragweed",[2]; [11],20
same,Ragweed plant response rating,[2]; [12],20
same,"Plant response rating, Kochia",[3]; [9],90
same,"Plant response rating, Kochia",[3]; [10],100
same,"Plant response rating, Kochia",[3]; [11],100
same,Kochia plant response rating,[3]; [12],100
same,pest or weed control at 31 g/ha,"[4]; post-emergence, Postemergence, scale 0 to 100 (0 no effect, 100 complete control), read-out: Pigweed plant response rating",95%
same,pest or weed control at 62 g/ha,[4]; [13],98%
same,pest or weed control at 125 g/ha,[4]; [13],98%
same,pest or weed control at 125 g/ha,"[4]; pre-emergence, Preemergence, read-out: Plant response rating (scale 0 to 100), Pigweed",100%
same,pest or weed control at 16 g/ha,"[4]; pre-emergence, Preemergence, 16 g ai/ha, scale 0 to 100 (0 no effect, 100 complete control), read-out: Plant response rating, Pigweed",100%
same,pest or weed control at 31 g/ha,[4]; [14],100%
same,pest or weed control at 62 g/ha,[4]; [14],100%
same,pest or weed control at 31 g/ha,"[5]; post-emergence, Postemergence, scale 0 to 100 (0 no effect, 100 complete control), read-out: Galium plant response rating",80%
same,pest or weed control at 62 g/ha,[5]; [15],80%
same,pest or weed control at 125 g/ha,[5]; [15],90%
same,pest or weed control at 125 g/ha,"[5]; pre-emergence, Preemergence, read-out: Plant response rating (scale 0 to 100), Galium",100%
same,pest or weed control at 16 g/ha,"[5]; pre-emergence, Preemergence, 16 g ai/ha, scale 0 to 100 (0 no effect, 100 complete control), read-out: Plant response rating, Galium",90%
same,pest or weed control at 31 g/ha,[5]; [16],98%
same,pest or weed control at 62 g/ha,[5]; [16],100%
same,pest or weed control at 31 g/ha,"[6]; post-emergence, Postemergence, scale 0 to 100 (0 no effect, 100 complete control), read-out: Ryegrass, Italian plant response rating",0%
same,pest or weed control at 62 g/ha,[6]; [17],10%
same,pest or weed control at 125 g/ha,[6]; [17],10%
same,pest or weed control at 125 g/ha,"[6]; pre-emergence, Preemergence, read-out: Plant response rating (scale 0 to 100), Ryegrass, Italian",85%
same,pest or weed control at 16 g/ha,"[6]; pre-emergence, Preemergence, 16 g ai/ha, scale 0 to 100 (0 no effect, 100 complete control), read-out: Plant response rating, Ryegrass, Italian",0%
same,pest or weed control at 31 g/ha,[6]; [18],35%
same,pest or weed control at 62 g/ha,[6]; [18],70%
same,pest or weed control at 16 g/ha,[7]; [19],15%
same,pest or weed control at 31 g/ha,[7]; [19],20%
same,pest or weed control at 62 g/ha,[7]; [20],25%
same,pest or weed control at 125 g/ha,[7]; [20],80%
same,pest or weed control at 125 g/ha,"[7]; pre-emergence, Preemergence, read-out: Plant response rating (scale 0 to 100), Blackgrass",95%
same,pest or weed control at 16 g/ha,[7]; [21],15%
same,pest or weed control at 31 g/ha,[7]; [21],90%
same,pest or weed control at 62 g/ha,[7]; [21],95%
same,pest or weed control at 16 g/ha,"[8]; post-emergence, Postemergence, 16 g ai/ha, scale 0 to 100 (0 no effect, 100 complete control), read-out: Foxtail, Giant plant response rating",5%
same,pest or weed control at 31 g/ha,"[8]; post-emergence, Postemergence, 31 g ai/ha, scale 0 to 100 (0 no effect, 100 complete control), read-out: Foxtail, Giant plant response rating",10%
same,pest or weed control at 62 g/ha,"[8]; post-emergence, Postemergence, 62 g ai/ha, scale 0 to 100, 0 no effect, 100 complete control, read-out: Plant response rating, Foxtail, Giant",20%
same,pest or weed control at 125 g/ha,"[8]; post-emergence, Postemergence, scale 0 to 100, 0 no effect, 100 complete control, read-out: Plant response rating, Foxtail, Giant",20%
same,pest or weed control at 125 g/ha,"[8]; pre-emergence, Preemergence, read-out: Plant response rating (scale 0 to 100), Foxtail, Giant",100%
